Measured values as given in patent US7919489B2, “Heterocyclyamide-substituted imidazoles” (Aicuris GmbH & Co. KG, priority 2005, dated 2011).
pEC50: −log10 of the molar value.

Tests used:
HCMV = test: Anti-HCMV cytopathogenicity test (inhibition of CPE); type: cell-based, human cytomegalovirus; settings: for pEC50: Human betaherpesvirus 5, 144 h, concentration inhibiting the CPE by 50% vs untreated virus control, HCMV-infected NHDF cells, 6 days
Protocol: Anti-HCMV (Anti-Human Cytomegalovirus) Cytopathogenicity Tests The test compounds are employed as 50 millimolar (mM) solutions in dimethyl sulfoxide (DMSO). Ganciclovir, foscarnet and cidofovir are used as reference compounds. After the addition of in each case 2 μl of the 50, 5, 0.5 and 0.05 mM DMSO stock solutions to 98 μl portions of cell culture medium in row […] for duplicate determinations, 1:2 dilutions are carried out with 50 μl portions of medium up to row 11 of the 96-well plate. The wells in rows 1 and 12 each contain 50 μl of medium. Then 150 μl of a suspension of 1×10^4 cells (human prepuce fibroblasts [NHDF]) are pipetted into each of the wells (row 1=cell control) and, in rows 2-12, a mixture of HCMV-infected and uninfected NHDF cells (M.O.I.=0.001-0.002), i.e. 1-2 infected cells per 1000 uninfected cells. Row 12 (without substance) serves as virus control. The final test concentrations are 250-0.0005 μM. The plates are incubated at 37° C./5% CO2 for 6 days, i.e. until all the cells in the virus controls are infected (100% cytopathogenic effect [CPE]). The wells are then fixed and stained by adding a mixture of formalin and Giemsa's dye (30 minutes), washed with double-distilled water and dried in a drying oven at 50° C. The plates are then assessed visually using an overhead microscope (Plaque Multiplier from Technomara). The following data can be acquired from the test plates: EC50 (HCMV)=substance concentration in μM which inhibits the CPE (cytopathic effect) by 50% compared with the untreated virus control; SI (selectivity index)=CC50 (NHDF)/EC50 (HCMV).

[1] = Anti-HCMV cytopathogenicity test: cytostatic effects on NHDF cells; type: cell-based; settings: human, NHDF cells (human prepuce fibroblasts), maximum substance concentration with no visible cytostatic effects vs untreated cell control
Protocol: Anti-HCMV (Anti-Human Cytomegalovirus) Cytopathogenicity Tests The test compounds are employed as 50 millimolar (mM) solutions in dimethyl sulfoxide (DMSO). Ganciclovir, foscarnet and cidofovir are used as reference compounds. After the addition of in each case 2 μl of the 50, 5, 0.5 and 0.05 mM DMSO stock solutions to 98 μl portions of cell culture medium in row […] for duplicate determinations, 1:2 dilutions are carried out with 50 μl portions of medium up to row 11 of the 96-well plate. The wells in rows 1 and 12 each contain 50 μl of medium. Then 150 μl of a suspension of 1×10^4 cells (human prepuce fibroblasts [NHDF]) are pipetted into each of the wells (row 1=cell control) and, in rows 2-12, a mixture of HCMV-infected and uninfected NHDF cells (M.O.I.=0.001-0.002), i.e. 1-2 infected cells per 1000 uninfected cells. Row 12 (without substance) serves as virus control. The final test concentrations are 250-0.0005 μM. The plates are incubated at 37° C./5% CO2 for 6 days, i.e. until all the cells in the virus controls are infected (100% cytopathogenic effect [CPE]). The wells are then fixed and stained by adding a mixture of formalin and Giemsa's dye (30 minutes), washed with double-distilled water and dried in a drying oven at 50° C. The plates are then assessed visually using an overhead microscope (Plaque Multiplier from Technomara). The following data can be acquired from the test plates: CC50 (NHDF)=maximum substance concentration in μM at which no visible cytostatic effects on the cells are evident by comparison with the untreated cell control;

Row | SMILES | pEC50 (HCMV) | SI HCMV (selectivity index = CC50 (NHDF)/EC50 (HCMV)) (HCMV) | CC50 at 6 days [1] [µM]
1 | Cc1ccc(N2CCN(C(=O)c3nc(NC(=O)Nc4ccc(OC(F)(F)F)cc4)cn3C)CC2)nc1 [Example 2, N-(1-Methyl-2-{[4-(5-methylpyridin-2-yl)piperazin-1-yl]carbonyl}-1H-imidazol-4-yl)-N′-[4-(trifluoromethoxy)phenyl]urea] | 9.12 | 14530 | 10.9
2 | Cn1cc(NC(=O)Nc2ccc(OC(F)(F)F)cc2)nc1C(=O)N1CCN(c2ccccn2)CC1 [Example 1, N-{1-Methyl-2-[(4-pyridin-2-ylpiperazin-1-yl)carbonyl]-1H-imidazol-4-yl}-N′-[4-(trifluoromethoxy)phenyl]urea] | 8.52 | 14500 | 43.5

Second part, led by results:

Row | pEC50 (HCMV) | SMILES | SI HCMV (selectivity index = CC50 (NHDF)/EC50 (HCMV)) (HCMV) | CC50 at 6 days [1] [µM]
3 | 8.32 | Cn1cc(NC(=O)Nc2ccc(OC(F)(F)F)cc2)nc1C(=O)N1CCN(c2ccc(C#N)cn2)CC1 [Example 25] | 2600 | 12.5
4 | 9.07 | Cc1ccc(N2CCN(C(=O)c3nc(NC(=O)Nc4ccc(OC(F)(F)F)cc4)cn3CC3CC3)CC2)nc1 [Example 32] | 6240 | 5.3
5 | 9.02 | COc1ccc(N2CCN(C(=O)c3nc(NC(=O)Nc4ccc(OC(F)(F)F)cc4)cn3C)CC2)nc1 [Example 29] | 35790 | 34
